For data set [1], the system named is Influenza A virus. As to the kind of experiment: Antiviral activity against Influenza A virus (A/Udorn/72) expressing wild-type matrix protein 2 infected in MDCK cells assessed as inhibition of plaque formation at 5 uM measured after 2 days. The format is functional, organism-based. To be noted: Influenza A virus (A/udorn/1972(H3N2)).
The target in data set [2] is Matrix protein 2 (Influenza A virus) (UniProt P06821). The format is cell-based. To be noted: Influenza A virus (A/udorn/1972(H3N2)); Oocyte; 100 uM.
The test system of data set [3] is MDCK. Nature of the data set: Cytotoxicity against MDCK cells after 72 hrs by MTS assay. The format is cell-based, Canis lupus familiaris. The settings on record: dog. For orientation: Formazan colour is commonly taken as a measure of viable cells.
Data set [4] relates to Influenza A virus. Nature of the data set: Inhibition of Influenza A virus matrix protein 2. To be noted: concentration not given here.
Data set [5] can be described thus: Binding affinity to Influenza A virus (A/Udorn/72) transmembrane domain of matrix protein 2 (22 to 46) at pH 7.4 by circular dichroism analysis. Also noted: species or system Influenza A virus (A/udorn/1972(H3N2)).
In data set [6] the target is Matrix protein 2 (Influenza A virus, UniProt P06821). The format is cell-based, Influenza A virus (A/udorn/1972(H3N2)), Oocyte.

Activity calls are given as the source filed them. No cut-off for these calls is given here.

Usually inhibition stands for the share of the control response that was lost under treatment. A lower inhibition goes with little suppression. What is called CC50 is the concentration giving 50% cytotoxicity. Read a high CC50 as lower toxicity to the cells. Usually Kd stands for the equilibrium constant for the complex coming apart. As usually defined, the IC50 is the point on the concentration scale where inhibition reaches its midpoint.

Sequence of Matrix protein 2 (Influenza A virus) (P06821 whole entry): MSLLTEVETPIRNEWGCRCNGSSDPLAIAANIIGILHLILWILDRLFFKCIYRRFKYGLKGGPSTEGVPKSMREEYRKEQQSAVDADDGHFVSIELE
Sequence of Matrix protein 2 (P06821 whole entry): as above

On to `N=C(N)NCC12CC3CC(CC1C3)C2`, for which the outcome in data set [1] was Active. In addition, the inhibition in data set [2] was found to be 97.2%.

Consider `NC12C3CCC4C3C3C(CCC31)C42`, for which the 50% cytotoxic concentration (CC50) in data set [3] is > 500 µM. The molecule also gave an inhibition in data set [2] of 4.8%.

As to `NC12CC3CC(CC(C3)C1)C2` [AMANTADINE], the inhibition in data set [4] was 85%; in data set [2], 91%. In addition, the outcome in data set [1] was Active.

Take `CCN(CC)C12C3CCC4C3C3C(CCC31)C42`: the half-maximal cytotoxic concentration (CC50) in data set [3] was determined as 119 µM. Further, in data set [2], the inhibition amounted to 0%.

With `C1=CC2C3C4C5C=CC4C24CNCC54C13`, the CC50 in data set [3] was > 500 µM. Besides, in data set [5], the dissociation constant (Kd) was found to be 74.9 µM. Half-maximal inhibition in data set [6] (IC50) required 33.5 µM.

In the case of `NCC12C3CCC4C3C3C(CCC31)C42`, it took 12 µM to reach half-maximal cytotoxicity in data set [3] (CC50). For the same molecule, the inhibition in data set [2] was 12.8%.

Turning to `C1CC2C3C4C5CCC4C24CNCC54C13`, the inhibition in data set [2] worked out at 39.7%.

Regarding `CC12CC3CC1(C)CC3(N)C2`, in data set [3], the CC50 was > 500 µM. Also, the result in data set [1] was Active. The inhibition in data set [2] was 93.6%.

Consider `NC12CC3CC(CC(C3)O1)C2`, for which the cytotoxic concentration (CC50) in data set [3] was > 500 µM. In addition, in data set [2], the inhibition turned out to be 88.2%. The molecule further showed a Kd in data set [5] of 91.6 µM. Also, the IC50 in data set [6] was 29.2 µM.

Consider `CC(=N)NC12C3CCC4C3C3C(CCC31)C42`, for which the half-maximal cytotoxic concentration (CC50) in data set [3] is > 500 µM. Besides, the inhibition in data set [2] is 9.3%.

`CC12CC3CC1(C)CC3(CN)C2`: the 50% cytotoxic concentration (CC50) in data set [3] was determined as 79 µM. Besides, in data set [1], the result was Active. The inhibition in data set [2] is 97.3%. Moreover, inhibition in data set [6] was half-maximal at 7.2 µM (IC50).

Molecule `CNCC12C3CCC4C3C3C(CCC31)C42` gave a CC50 in data set [3] of 224 µM. In addition, the inhibition in data set [2] is 14.7%.

The molecule `NC(N)=NCC12CC3CC(CC1C3)C2` had a CC50 in data set [3] of 10.5 µM. Also, the IC50 in data set [6] worked out at 2.4 µM.

Regarding `CC(N)C12CC3CC(CC1C3)C2` (racemic), half-maximal cytotoxicity in data set [3] (CC50) was put at 256 µM. In addition, the outcome in data set [1] was Active. In data set [2], this molecule yielded an inhibition of 93.2%. The molecule further showed an IC50 in data set [6] of 12.7 µM.

Take `CNCC12CC3CC(CC1C3)C2`: the CC50 in data set [3] was < 19.4 µM. Besides, in data set [1], the outcome was Active. The molecule further displayed an inhibition in data set [2] of 92.2%. This molecule gave an IC50 in data set [6] of 17.1 µM.

In turn, `NCC12CC3CC(CC1C3)C2` displayed a CC50 in data set [3] of 357 µM. Besides, the result in data set [1] was Active. The inhibition in data set [2] was 97.1%. For the same molecule, in data set [6], the midpoint of inhibition, the IC50, lay at 7.1 µM.

For `C1C2C1C1C3C4C5C6CC6C4C14CNCC54C23` (stereo unspecified), it took 61 µM to reach half-maximal cytotoxicity in data set [3] (CC50). In addition, in data set [1], the result was Active. For the same molecule, the inhibition in data set [2] came out at 86.5%. Also, binding in data set [5] was characterised by a dissociation constant (Kd) of 232 µM.

For the molecule `CNC12CC3CC(CC(C3)O1)C2`, in data set [3], the half-maximal cytotoxic concentration (CC50) is > 500 µM. In data set [2], this molecule showed an inhibition of 91.7%. The IC50 in data set [6] amounted to 22.9 µM.

These data come from ChEMBL document CHEMBL1773003.
